Laboratory results reported in US8361711B2, “Tools and methods useful in characterising the immunotoxic activity of xenobiotic substances” (National Institute of Public Health and the Environment, …, priority 2004, dated 2013).
Counter-ions that a name gives are not always drawn.

Columns and labels:
[1] = system: IL-2 fused to a stabile form of EGFP; experiment: Clones with IL-2 regulatory elements fused to a stabile form of EGFP; type: cell-based, mouse
Experimental: (§1) Samples were analyzed in an EPICS® XL-MCL Coulter flow cytometer with Expo v.2 Analysis Software/Expo32 Analysis Software (Applied Cytometry Systems, Sheffield, UK). or any other suitable flow cytometer. Viable and dead cells were gated separately and results were determined based on fluorescence associated with viable cells only. Regions were set in control cells and the same regions were used in induction controls and chemically challenged cells. Percent positive cells and fluorescence intensity were noted and used in further calculations.
(§2) Index numbers were calculated from the median fluorescence intensity of viable cells. Cells incubated in the absence or presence of ionomycin/PMA were analysed separately. Each clone incubated with or without ionomycin/PMA, but without further chemicals/compounds was defined as index number=1, and the index numbers for the other exposures were calculated from this.
(§3) One way ANOVAs (one way analysis of variance) were performed. In cases where normality failed, we used Kruskal-Wallis One Way Analysis of Variance on Ranks. If the differences between groups were statistically significant (p<0.05), we continued with tests for multiple comparisons. In normally distributed data we used Bonferroni t-test and multiple comparisons versus the control. The control was chosen to be the sample incubated in the presence or absence of ionomycin/PMA only. When normality failed we used […] for multiple comparisons versus the control.

[2] = system: IFN-γ fused to a stabile form of EGFP; experiment: Clones with IFN-γ regulatory elements fused to a stabile form of EGFP; type: cell-based, mouse
Experimental: as §1, §2, §3

[3] = system: IL-10 promoter dEGFP reporter, EL/p2-5′IL10-dEGFP/5 (EL4); experiment: Prototype cell chip, flow cytometry, IL-10 clone; type: cell-based
Experimental: as §1
as §2, with “this. Experiments with the same exposures were pooled to perform statistical analysis, using SigmaStat 2.03 statistical analysis software (SPSS Inc., Chicago, Ill. USA).” for “this.”
as §3
(§4) The following cell lines: EL/pCA-dEGFP/9, EL/p1-5′IL2-dEGFP/6, EL/p2-5′ IL4-dEGFP/2, EL/p1-5′IFNγ-dEGFP/3, and EL/p2-5′IL10-dEGFP/5, obtained by transfection with the DNA constructs containing promoter region derived from β-actin, IL2, IL4, INF-γ, and IL10 were employed to design the prototype cell chip. The prototype cell chip was used to test the activity of different substances.

[4] = system: β-actin promoter dEGFP reporter, EL/pCA-dEGFP/9 (EL4); experiment: Prototype cell chip, flow cytometry, control clone; type: cell-based
Experimental: as §1
as §2, with “this. Experiments with the same exposures were pooled to perform statistical analysis, using SigmaStat 2.03 statistical analysis software (SPSS Inc., Chicago, Ill. USA).” for “this.”
as §3, §4

[5] = system: cell lines developed in the project; experiment: Cytotoxicity (cell viability) testing, LDH release; conditions: for concentration which led to 10% cytotoxicity: highest concentration used on the cell chip
Experimental: The basic cytotoxicty assay employed was LDH release. Several cytotoxicity assays were performed independently in two laboratories. […] In addition, the cytotoxicity associated with the solvent was also tested to eliminate the possibility of interference in the test outcome.
Cells were plated in 24 well microtiter plates at a density of 0.5×10^6 cells/mL and with a final volume of 1.5 mL/well. Two controls were included for each cell line, in each experiment.

[6] = system: IL-2 promoter dEGFP reporter, EL/p1-5′IL2-dEGFP/6 (EL4); experiment: Prototype cell chip, flow cytometry, IL-2 clone; type: cell-based, mouse
Experimental: as §1
as §2, with “this. Experiments with the same exposures were pooled to perform statistical analysis, using SigmaStat 2.03 statistical analysis software (SPSS Inc., Chicago, Ill. USA).” for “this.”
as §3, §4

[7] = system: IL-4 promoter dEGFP reporter, EL/p2-5′IL4-dEGFP/2 (EL4); experiment: Prototype cell chip, flow cytometry, IL-4 clone; type: cell-based, mouse
Experimental: as §1
as §2, with “this. Experiments with the same exposures were pooled to perform statistical analysis, using SigmaStat 2.03 statistical analysis software (SPSS Inc., Chicago, Ill. USA).” for “this.”
as §3, §4

[8] = system: IFN-γ promoter dEGFP reporter, EL/p1-5′IFNγ-dEGFP/3 (EL4); experiment: Prototype cell chip, flow cytometry, IFN-γ clone; type: cell-based, mouse
Experimental: as §1
as §2, with “this. Experiments with the same exposures were pooled to perform statistical analysis, using SigmaStat 2.03 statistical analysis software (SPSS Inc., Chicago, Ill. USA).” for “this.”
as §3, §4

IFNγ = experiment: RT-PCR of endogenous cytokine expression in activated reporter cell lines; type: cell-based
Experimental: (§5) In order to correlate the GFP expression data with effects on the expression of endogenous cytokine mRNA, RT-PCR analysis was performed. Non-transfected EL4 and BW5147.3 cells were activated with TPA/ionomycin or anti-CD3 and RNA was prepared. Following cDNA synthesis PCR was performed to detect expression of IL-2, IFNγ, and GAPDH (control). The results generally agree with the GFP expression data. In BW5147.3 cells neither IL-2, nor IFNγ mRNA, could be detected in non-induced cells or after activation. In EL4 cells, IL-2 and IFNγ expression could be induced by TPA/ionomycin, but not anti-CD3.
(§6) For EL4 derived cells basal GFP expression was not affected following treatment with any of the above chemicals. […] This inhibitory effect of Cyclosporine was observed independently in all three laboratories performing such experiments. Furthermore, this inhibition of EGFP expression was detected with all three techniques emplyed for EGFP measurements (i.e. FACS, fluorescence microscope, and Fluorostar).

IL-2 = experiment: as above; type: cell-based
Experimental: as §5, §6

[9] = system: IL-2 reporter cells EL/p1-5′IL2-EGFP/3 and EL/p1-5′IL2-dEGFP/6 (EL4); experiment: Preliminary test of IL-2 reporter cells (FACS, fluorescence microscope, Fluorostar); type: cell-based, mouse
[10] = system: BW5147.3 derived GFP transfected cell clones; experiment: BW5147.3 derived GFP transfected cell clones, GFP expression; type: cell-based
From the text: BW5147.3 derived GFP transfected cell clones have been also used to test the effects of immunomodulatory compounds.

[11] = system: J/p4-5′IL1β-dEGFP/4 reporter cell line; type: cell-based
[12] = system: IL-1β promoter dEGFP reporter, J/p4-5′IL1β-dEGFP/4 cells; type: cell-based, mouse
[13] = absence of ionomycin/PMA, all tested concentrations
[14] = presence of ionomycin/PMA, all tested concentrations
[15] = presence of ionomycin/PMA, highest concentration
[16] = presence of ionomycin/PMA, all tested concentrations, 24 h
[17] = absence of ionomycin/PMA, highest concentration
[18] = presence of ionomycin/PMA, 1:10 dilution
[19] = presence of ionomycin/PMA, 1:100 dilution
[20] = absence of ionomycin/PMA, highest concentration, 24 h
[21] = presence of ionomycin/PMA, 1:10 dilution, 24 h
[22] = presence of ionomycin/PMA, highest concentration, 24 h
[23] = absence of ionomycin/PMA, 1:10 dilution, 24 h

## [Cl][Hg][Cl] [mercuric chloride, Mercury (II) chloride]
[1]; [13]
  IL-2 expression, stabile EGFP clone: exposure effects were not observed
[1]; [14]
  IL-2 expression, stabile EGFP clone: not affected
[2]; [13]
  IFN-γ expression, stabile EGFP clone: exposure effects were not observed
[2]; [15]
  IFN-γ expression, stabile EGFP clone: apparently dose-dependent reduction

## O=C1CCC(N2C(=O)c3ccccc3C2=O)C(=O)N1 (racemic) [thalidomide, (+/−)—Thalidomide]
[3]; [13]
  IL-10 clone fluorescence vs control: did not show any significant changes
[3]; [16]
  IL-10 clone fluorescence vs control: only actin inhibited
[4]; [17]
  actin clone, inhibition: 5-10%
[4]; [15]
  actin clone fluorescence vs control: inhibited
[1]; [17]
  IL-2 inhibition, stabile EGFP clone: 10%
[1]; [18]
  IL-2 expression, stabile EGFP clone: did not show detectable effects
[1]; [19]
  IL-2 expression, stabile EGFP clone: did not show detectable effects
[1]; [15]
  IL-2 expression, stabile EGFP clone: dose-dependent inhibition
[5]
  toxicity (LDH-assay): did not find thalidomide to be toxic
[6]; [13]
  IL-2 clone fluorescence vs control: did not show any significant changes
[6]; [16]
  IL-2 clone fluorescence vs control: only actin inhibited
[2]; [18]
  IFN-γ expression, stabile EGFP clone: did not show detectable effects
[2]; [19]
  IFN-γ expression, stabile EGFP clone: did not show detectable effects
[2]; [15]
  IFN-γ expression, stabile EGFP clone: dose-dependent inhibition
[7]; [13]
  IL-4 clone fluorescence vs control: did not show any significant changes
[7]; [16]
  IL-4 clone fluorescence vs control: only actin inhibited
[8]; [13]
  IFN-γ clone fluorescence vs control: did not show any significant changes
[8]; [16]
  IFN-γ clone fluorescence vs control: only actin inhibited

## CO[C@H]1C[C@@H]2CC[C@@H](C)[C@@](O)(O2)C(=O)C(=O)N2CCCC[C@H]2C(=O)O[C@H]([C@H](C)C[C@@H]2CC[C@@H](O)[C@H](OC)C2)CC(=O)[C@H](C)/C=C(\C)[C@@H](O)[C@@H](OC)C(=O)[C@H](C)C[C@H](C)/C=C/C=C/C=C/1C [Rapamycin]
[5]
  concentration which led to 10% cytotoxicity: 10000 ng/mL

## Clc1cc2c(cc1Cl)Oc1cc(Cl)c(Cl)cc1O2 [TCDD]
IFNγ
  upregulation of expression of IFNγ (RT-PCR): had no effect
IL-2
  upregulation of expression of IL-2 (RT-PCR): had no effect
[9]; EL4 derived cells, not activated
  basal GFP expression: not affected
[9]; activation with TPA/ionophore
  activation induced GFP expression: did not have any effect
[10]
  basal GFP expression: did not affect the basal GFP expression

## O=[N+]([O-])c1ccc(Cl)c([N+](=O)[O-])c1 [DNCB, 1-Chloro-2,4-dinitrobenzene]
[3]; [16]
  IL-10 clone fluorescence vs control: no statistically significant changes were found
[4]; [20]
  actin clone fluorescence vs control: increased expression
[4]; [16]
  actin clone fluorescence vs control: no statistically significant changes were found
[1]; [14]
  IL-2 expression, stabile EGFP clone: failed to alter expression
[5]
  concentration which led to 10% cytotoxicity: 10 µM
[6]; [20]
  IL-2 clone fluorescence vs control: increased expression
[6]; [16]
  IL-2 clone fluorescence vs control: no statistically significant changes were found
[2]; [17]
  IFN-γ expression, stabile EGFP clone: apparently dose-dependent increase reaching statistical significance at the highest concentration
[2]; [14]
  IFN-γ expression, stabile EGFP clone: failed to alter expression
[7]; [20]
  IL-4 clone fluorescence vs control: increased expression
[7]; [16]
  IL-4 clone fluorescence vs control: no statistically significant changes were found
[8]; [20]
  IFN-γ clone fluorescence vs control: increased expression
[8]; [16]
  IFN-γ clone fluorescence vs control: no statistically significant changes were found

## CCOC(=O)c1ccc(N)cc1 [benzocaine, Ethyl-4-Aminobenzoate]
[3]; [21]
  IL-10 clone fluorescence vs control: statistically significant inhibitory effect
[3]; [22]
  IL-10 clone fluorescence vs control: statistically significant inhibitory effect
[4]; [20]
  actin clone fluorescence vs control: significantly increased
[5]
  toxicity (LDH-assay): did not find benzocaine to be toxic
[6]; [21]
  IL-2 clone fluorescence vs control: statistically significant inhibitory effect
[6]; [22]
  IL-2 clone fluorescence vs control: statistically significant inhibitory effect
[8]; [22]
  IFN-γ clone fluorescence vs control: inhibited

## [Cl][Pt-2]([Cl])([Cl])[Cl].[K+].[K+] [K2PtCl4, Potassium tetrachloro-platinate (II)]
[1]; [13]
  IL-2 expression, stabile EGFP clone: exposure effects were not observed
[1]; [15]
  IL-2 expression, stabile EGFP clone: dose-dependent reduction
[2]; [13]
  IFN-γ expression, stabile EGFP clone: exposure effects were not observed
[2]; [15]
  IFN-γ expression, stabile EGFP clone: dose-dependent reduction
[11]
  NO levels in supernatants: elevated levels
[12]
  GFP fluorescence under microscope: didn′t show noticeable fluorescence
[12]; 100 μM, stimulated for 6 h
  mRNA for GFP: upregulation of mRNA for GFP

## CCCCCCCCCCCCOS(=O)(=O)[O-].[Na+] [SDS, Sodium Dodecyl Sulphate]
[1]; [13]
  IL-2 expression, stabile EGFP clone: exposure effects were not observed
[1]; [15]
  IL-2 expression, stabile EGFP clone: apparently dose-dependent reduction
[2]; [13]
  IFN-γ expression, stabile EGFP clone: exposure effects were not observed
[2]; [14]
  IFN-γ expression, stabile EGFP clone: not affected

## N=C(N)c1ccc(OCCCCCOc2ccc(C(=N)N)cc2)cc1 [pentamidine, Pentamidine isethionate salt]
[3]; [23]
  IL-10 clone fluorescence vs control: clearly inhibited
[3]; [20]
  IL-10 clone fluorescence vs control: clearly inhibited
[3]; [21]
  IL-10 clone fluorescence vs control: suppressed
[3]; [22]
  IL-10 clone fluorescence vs control: suppressed
[4]; [23]
  actin clone fluorescence vs control: increase
[4]; [20]
  actin clone fluorescence vs control: increase
[4]; [16]
  actin clone fluorescence vs control: not altered
[5]
  concentration which led to 10% cytotoxicity: 30000 ng/mL
[6]; [21]
  IL-2 clone fluorescence vs control: suppressed
[6]; [22]
  IL-2 clone fluorescence vs control: suppressed
[7]; [21]
  IL-4 clone fluorescence vs control: suppressed
[7]; [22]
  IL-4 clone fluorescence vs control: suppressed
[8]; [22]
  IFN-γ clone fluorescence vs control: suppressed

## Cc1ccc(N=C=O)cc1N=C=O [TDI, Tolylene 2,4-diisocyanate]
[5]
  concentration which led to 10% cytotoxicity: 500 µM
[7]; [22]
  IL-4 clone fluorescence vs control: statistically significant increase
[8]; [20]
  IFN-γ clone fluorescence vs control: significant induction

## CCC[CH2][Sn]([CH2]CCC)([CH2]CCC)[O][Sn]([CH2]CCC)([CH2]CCC)[CH2]CCC [TBTO, Bis(tri-n-butyltin) oxide]
[1]; [13]
  IL-2 expression, stabile EGFP clone: failed to show altered expression
[1]; [18]
  IL-2 expression, stabile EGFP clone: statistically significant inhibition
  IL-2 inhibition, stabile EGFP clone: 10%
[2]; [13]
  IFN-γ expression, stabile EGFP clone: failed to show altered expression
